From US20260022143A1, “Cyclic Peptide Inhibitors of IL-23” (JANSSEN PHARMACEUTICA NV, priority 2022, published 2026)
Starred links: 1 amine or outer side, 2 acyl side, 3 side chain; linkers in the order of their positions; H or OH if unused. Positions of bridges follow the written chain, without caps; N, C: chain ends. Non-standard residues stand in square brackets, D forms with d. Residues, ends and D or L forms follow the SMILES beside them. ξ: configuration not given here. *: point of attachment. Trp(7-(3-AcNH-Ph)) = CC(=O)Nc1cccc(-c2cccc3c(C[C@H](N)C(=O)O)c[nH]c23)c1; Me3N+(CH2)2O(CH2)2O(CH2)2CO = C[N+](C)(C)CCOCCOCCC(=O)*; CH2CH2OCH2CH2OCH2CH2NMe3+ = C[N+](C)(C)CCOCCOCC*; Trp(7-Me) = Cc1cccc2c(C[C@H](N)C(=O)O)c[nH]c12; Abu(4-yl) = O=C([C@H](CC[*:3])N[*:1])[*:2]; dLys(Me3) = C[N+](C)(C)CCCC[C@@H](N)C(=O)O; 2Nal = N[C@@H](Cc1ccc2ccccc2c1)C(=O)O; 3Pal = N[C@@H](Cc1cccnc1)C(=O)O; Lys(Me) = CNCCCC[C@H](N)C(=O)O; Pen = CC(C)(S)[C@H](N)C(=O)O; ξLys(Me) = CNCCCCC(N)C(=O)O; Thp = NC1(C(=O)O)CCOCC1; X3 = C[N+](C)(C)CCCCC*; Sar = CNCC(=O)O

What was measured:
[1] = target: T1, IL-23R (Homo sapiens, UniProt Q5VWK5); assay: IL23R Reporter Assay; type: cell-based; conditions: HEK293 cells containing IL-23R, IL-12RP1 and STAT-inducible firefly luciferase reporter; 10 ng/mL IL-23 (EC90); 5 h at 37° C.; read-out: IL23R Reporter Assay
T1 construct: host or cells: HEK293
T1 sequence (Q5VWK5 24-629): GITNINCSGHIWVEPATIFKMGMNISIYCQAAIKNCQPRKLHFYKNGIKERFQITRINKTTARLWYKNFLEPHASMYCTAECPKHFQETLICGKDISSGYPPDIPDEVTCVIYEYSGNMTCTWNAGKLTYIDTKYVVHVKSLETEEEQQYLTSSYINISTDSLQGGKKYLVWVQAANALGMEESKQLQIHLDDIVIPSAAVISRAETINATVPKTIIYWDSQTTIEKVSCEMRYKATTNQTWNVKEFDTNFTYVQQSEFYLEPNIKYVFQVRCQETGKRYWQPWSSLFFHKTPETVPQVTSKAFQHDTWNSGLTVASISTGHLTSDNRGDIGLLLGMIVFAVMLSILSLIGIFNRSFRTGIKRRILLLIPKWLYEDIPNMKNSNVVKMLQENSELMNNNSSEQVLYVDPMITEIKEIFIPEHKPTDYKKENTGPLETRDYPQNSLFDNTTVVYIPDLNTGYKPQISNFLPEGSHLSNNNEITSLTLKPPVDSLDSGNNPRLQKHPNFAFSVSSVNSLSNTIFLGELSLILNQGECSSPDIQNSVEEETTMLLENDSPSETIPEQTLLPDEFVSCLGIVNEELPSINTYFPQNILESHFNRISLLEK

[2] = Exposed Polar Surface Area (EPSA); type: physicochemical; conditions: SFC on Chirex 3014 column; sample 1 mM DMSO stock; read-out: EPSA
How it was run: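 Retention-based polarity: supercritical CO2 with 20 mM ammonium formate in MeOH (5–60%, 20%/min), Chirex 3014 column, 35 °C. Calibrated against 8 standards to give EPSA (Å^2); each sample measured twice.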

Row | IC50 [1] | EPSA [2] | SMILES
1 | 9 nM | 151 A^2 | CC(=O)N(C)CCCC[C@H](NC(=O)[C@H](CC(C)C)NC(=O)[C@H](Cc1ccc2ccccc2c1)NC(=O)[C@H](Cc1ccc(OCCOCCOCC[N+](C)(C)C)cc1)NC(=O)[C@H]1NC(=O)[C@H](CC(C)C)NC(=O)[C@H](Cc2c[nH]c3c(C)cccc23)NC(=O)[C@H]([C@@H](C)O)NC(=O)[C@H](CC(C)C)NC(=O)[C@@H](NC(=O)CCOCCOCC[N+](C)(C)C)C(C)(C)SSC1(C)C)C(=O)N[C@@H](CC(N)=O)C(=O)N[C@@H](Cc1cccnc1)C(=O)N(C)CC(=O)N(C)C [compound 463, cPEG3aCO-Pen(3)-L-T-7MeW-L-Pen(3)-APEG3f-2Nal-L-K(NMeAc)-N-3Pya-Sar-CON(Me)2] ({Me3N+(CH2)2O(CH2)2O(CH2)2CO}-[Pen]LT[Trp(7-Me)]L[Pen]Y(CH2CH2OCH2CH2OCH2CH2NMe3+)[2Nal]L[Lys(Me)](Ac)N[3Pal][Sar]-NMe2; disulfide 1-6)
2 | 12 nM | 133 A^2 | CC(=O)N(C)CCCC[C@@H]1NC(=O)[C@H](Cc2c[nH]c3c(C)cccc23)NC(=O)[C@H](C)NC(=O)[C@H](CC(=O)N(C)C)NC(=O)[C@@H](NC(=O)CCOCCOCC[N+](C)(C)C)C(C)(C)SSC(C)(C)[C@@H](C(=O)N[C@@H](Cc2ccc(OCCCCC[N+](C)(C)C)cc2)C(=O)N[C@@H](Cc2ccc3ccccc3c2)C(=O)NC2(C(=O)N[C@@H](CCCCN(C)C(C)=O)C(=O)N[C@@H](CC(N)=O)C(=O)N[C@@H](Cc3cccnc3)C(=O)N(C)CC(=O)N(C)C)CCOCC2)NC1=O [compound 494, cPEG3aCO-Pen(3)-N(N(Me)2)-A-7MeW-K(NMeAc)-Pen(3)-TMAPF-2Nal-THP-K(NMeAc)-N-3Pya-Sar-CON(Me)2] ({Me3N+(CH2)2O(CH2)2O(CH2)2CO}-[Pen]D(NMe2)A[Trp(7-Me)][Lys(Me)](Ac)[Pen]Y(X3)[2Nal][Thp][Lys(Me)](Ac)N[3Pal][Sar]-NMe2; disulfide 1-6)
3 | 1540 nM | 153 A^2 | CC(=O)N(C)CCCCC(NC(=O)C1(NC(=O)[C@H](Cc2ccc3ccccc3c2)NC(=O)[C@H](Cc2ccc(OCCOCCOCC[N+](C)(C)C)cc2)NC(=O)[C@@H]2CCSC[C@H](NC(=O)CCOCCOCC[N+](C)(C)C)C(=O)N[C@@H](CC(=O)N(C)C)C(=O)N[C@@H]([C@@H](C)O)C(=O)N[C@@H](Cc3c[nH]c4c(C)cccc34)C(=O)N[C@@H](CCCCN(C)C(C)=O)C(=O)N2)CCOCC1)C(=O)N[C@@H](CC(N)=O)C(=O)N[C@@H](Cc1ccccc1)C(=O)N(C)CC(=O)N(C)C (some centres unmarked) [compound 475, cPEG3aCO-Abu(1)-N(N(Me)2)-T-7MeW-K(NMeAc)-C(1)-APEG3F-2Nal-THP-K(NMeAc)-N-F-Sar-CON(Me)2] ({Me3N+(CH2)2O(CH2)2O(CH2)2CO}-CD(NMe2)T[Trp(7-Me)][Lys(Me)](Ac)[Abu(4-yl)]Y(CH2CH2OCH2CH2OCH2CH2NMe3+)[2Nal][Thp][ξLys(Me)](Ac)NF[Sar]-NMe2; thioether 1-6)
4 | 2 nM | 176 A^2 | CC(=O)NCCCC[C@@H]1NC(=O)[C@H](Cc2c[nH]c3c(-c4cccc(NC(C)=O)c4)cccc23)NC(=O)[C@H]([C@@H](C)O)NC(=O)[C@H](CC(N)=O)NC(=O)[C@@H](NC(=O)[C@@H](CCCC[N+](C)(C)C)NC(C)=O)C(C)(C)SSC(C)(C)[C@@H](C(=O)N[C@@H](Cc2ccc(OCCCCC[N+](C)(C)C)cc2)C(=O)N[C@@H](Cc2ccc3ccccc3c2)C(=O)NC2(C(=O)N[C@@H](CCC(=O)O)C(=O)N[C@@H](CC(N)=O)C(=O)N[C@@H](Cc3cccnc3)C(=O)N(C)CC(N)=O)CCOCC2)NC1=O [compound 448, MeCO-k(Me)3-Pen(3)-N-T-7(3NAcPh)W-K(Ac)-Pen(3)-TMAPF-2Nal-THP-E-N-3Pya-Sar-CONH2] (Ac-[dLys(Me3)][Pen]NT[Trp(7-(3-AcNH-Ph))]K(Ac)[Pen]Y(X3)[2Nal][Thp]EN[3Pal][Sar]-NH2; disulfide 2-7)
